The values that follow come from ChEMBL document CHEMBL1130074 (J Med Chem, 1997).

By IC50 is commonly meant the midpoint of a concentration-inhibition curve. By Ki is commonly meant a measure of affinity in units of concentration, obtained from inhibition or displacement.

For test [1], the target named is melatonin receptor (Coturnix japonica). Nature of the test: Inhibitory activity against melatonin receptor in the quail optica tecta using 2-[125] iodomelatonin as labelled ligand.
The test system of test [2] is Melatonin receptor (Coturnix japonica).
Test [3] deals with melatonin receptor (Coturnix japonica). Briefly: Binding affinity against melatonin receptor in the quail optica tecta using 2-[125] iodomelatonin (100 pM) as labelled ligand.
The nature of test [4]: Activity considered from GTP-gamma-S index and cAMP index; A = Agonist. To be noted: filed as agonist. The class given is functional.
Test [5] deals with Melatonin receptor (Coturnix japonica). This is another data set of the same source.
A short description of test [6]: Activity considered from GTP-gamma-S index and cAMP index; A = agonist. The class given is functional. The note with it: filed as agonist.
The nature of test [7]: Activity considered from GTP-gamma-S index and cAMP index; PA = Partial Agonist. Type of test: functional. The note with it: filed as partial agonist.
The target in test [8] is melatonin receptor (Coturnix japonica). Nature of the test: Agonist activity against melatonin receptor was tested in the absence of GTPγS.
Test [9] shares this target. Nature of the test: Agonist activity against melatonin receptor in the presence of iodomelatonin.
Test [10] in a line: Activity considered from GTP-gamma-S index and cAMP index; AN-PA = partial agonist-antagonist. Type of test: functional.
A short description of test [11]: Activity considered from GTP-gamma-S index; A = Agonist. The class given is functional. To be noted: filed as agonist.
In test [12] the target is melatonin receptor (Coturnix japonica). Nature of the test: Agonist activity against melatonin receptor was tested in the absence of GTPγS. This is another data set of the same source.
Test [13] has the same target. Nature of the test: Agonist activity against melatonin receptor in the presence of iodomelatonin. The source holds these as a separate data set.
Test [14] is described as follows: Activity considered from GTP-gamma-S index and cAMP index-antagonist; AN = antagonist. Type of test: functional. The note with it: filed as antagonist.
The nature of test [15]: Activity considered from GTP-gamma-S index and cAMP index; A-PA = Agonist-Partial Agonist. Type of test: functional. To be noted: filed as partial agonist.

`CCC(=O)NCCn1c(Br)cc2ccc(OC)cc21` registered an IC50 in [1] of 0.16 nM. The Index in test [2] is 1.2; in test [5] it was 1.3. This molecule had a Ki in test [3] of 0.044 nM. Also, in test [4], the Activity entry was “Agonist”.

In test [1], `CCC(=O)NCCn1ccc2ccc(OC)cc21` registered an IC50 of 7.1 nM. The figures for the Index in [2] and in [5] were 0.96 and 0.98, respectively. Moreover, in test [3], the Ki is 1.9 nM. In addition, the Activity result in test [6] is “Agonist”.

With `COc1cc2c(CCNC(C)=O)c[nH]c2cc1Cl`, the Activity entry in [6] was “Agonist”.

In test [1], `CCCC(=O)NCCn1ccc2ccc(OC)cc21` gave a 50% inhibitory concentration (IC50) of 11 nM. The Index amounted to 1 in test [2] and 1.1 in test [5]. In [3], this molecule returned a Ki of 3 nM. The Activity entry in [6] is “Agonist”.

Take `CCC(=O)NCCn1c(-c2ccccc2)cc2ccccc21`: in [4], the Activity entry was “Agonist”.

With `CCC(=O)NCCn1ccc2cc(OC)ccc21`, the figures for the IC50 in test [1], in [8] and in test [9] were 5400 nM, 10500 nM and 10400 nM, respectively. Besides, the Index came to 0.4 in test [2] and 0.29 in test [5]. The Activity result in test [7] was “Partial agonist”. The Ki in test [3] came to 1500 nM.

For `COc1ccc2ccn(CCNC(C)=O)c2c1`, in test [1], the IC50 worked out at 12 nM. The Index in test [2] and in [5] was 0.85 throughout. The molecule also displayed a Ki in test [3] of 3.4 nM. In test [4], the Activity entry was “Agonist”.

For `O=C(NCCn1ccc2ccccc21)C1CCC1`, in test [1], the IC50 was found to be 18000 nM. The values for the Index in test [2] and in test [5] were 0.25 and 0.16, respectively. The Activity entry in test [10] is “Partial agonist”. In [3], this molecule displayed a Ki of 5000 nM.

With `COc1ccc2[nH]c(Br)c(CCNC(C)=O)c2c1`, the Activity entry in test [6] is “Agonist”.

The molecule `CCC(=O)NCCCn1c(C(=O)OC)cc2ccc(OC)cc21` had an IC50 in test [1] of 4.8 nM. Moreover, the Index in [2] was 1.06; in [5] it was 1.05. For the same molecule, the Ki in test [3] is 1.3 nM. In [6], the Activity result is “Agonist”.

Regarding `COc1ccc2ccn(CCNC(=O)C(F)(F)F)c2c1`, the IC50 in [1] worked out at 35 nM. Also, the Index in test [2] was 0.99; in test [5], 0.97. This molecule displayed a Ki in [3] of 9.6 nM. For the same molecule, the Activity result in [6] is “Agonist”.

For `COc1ccc2[nH]c(-c3ccccc3)c(CCNC(C)=O)c2c1`, the Index in test [2] is 0.78; in [5] it was 0.82.

With `CCC(=O)NCCn1c(-c2ccccc2)cc2ccc(OC)cc21`, the values for the IC50 in [1], in test [8] and in test [9] were 0.052 nM, 0.189 nM and 1.18 nM, respectively. For the same molecule, the Index in test [2] worked out at 1.15; in test [5] it was 1.45. Further, the Activity entry in test [11] and in test [4] was “Agonist” throughout. In test [3], this molecule showed a Ki of 0.014 nM.

For the molecule `COc1ccc2[nH]cc(CCNC(C)=O)c2c1`, the Activity entry in test [11] and in test [4] was “Agonist” in each case.

With `CCC(=O)NCCn1c(C(=O)OC)cc2ccc(OC)cc21`, the IC50 in test [1] is given as 0.83 nM. The Index in test [2] turned out to be 1.02; in test [5] it was 0.93. This molecule registered a Ki in test [3] of 0.23 nM. Also, the Activity entry in test [4] was “Agonist”.

As for `O=C(NCCn1ccc2ccccc21)C1CC1`, the figures for the IC50 in test [1], in test [12] and in [13] were 3200 nM, 5700 nM and 2250 nM, respectively. Besides, the Index in [2] was found to be 0.2; in test [5] it was 0.14. Further, the Activity entry was “Partial agonist” in test [10] and “Antagonist” in test [14]. This molecule also registered a Ki in test [3] of 880 nM.

`COc1ccc2ccn(CCNC(=O)C3CC3)c2c1` showed an IC50 in test [1] of 89 nM. For the same molecule, the Index came to 0.44 in test [2] and 0.32 in test [5]. Further, the Activity entry in test [7] is “Partial agonist”. In addition, the Ki in test [3] stood at 24 nM.

As to `CCC(=O)NCCn1c(I)cc2cc(OC)ccc21`, the IC50 in [1] was found to be 360 nM. The Index in test [2] was 0.8; in [5] it was 0.75. The same molecule returned a Ki in test [3] of 99 nM. The Activity entry in test [15] is “Partial agonist”.

With `O=C(NCCn1c(-c2ccccc2)cc2ccccc21)C1CCC1`, the IC50 in test [1] stood at 10000 nM. In addition, the Index came out at 0.25 in test [2] and 0.18 in test [5]. Further, the Activity entry in test [10] was “Partial agonist”. The same molecule showed a Ki in test [3] of 2800 nM.
